What was measured:
[1] = test system: mixture of Jurkat T lymphocyte and the plasma protein fibrinogen; experiment: Viscosity/shear rate measurement of Jurkat cells in fibrinogen solution; assay type: cell-based
Excerpt: Since PPIases can catalyze the dynamic rearrangement of the dense ECM polymer network, we speculated that PPIases could also affect the dynamic interaction between cells and the ECM. Probing the influence of transient prolyl isomerization on cell–ECM interaction is difficult. Studying cell adhesion by the treatment of PPIase inhibitors cannot distinguish extracellular and intracellular factors as well as receptor-mediated signaling due to the long assay time. In order to reflect the highly dynamic process, we measured the viscosity of plasma protein solution with cells. Blood is a shear-thinning non-Newtonian fluid, and its viscosity is largely affected by the interaction between cells and plasma proteins, for example, the coagulation process. We investigated whether the catalyzed isomerization could also influence the interaction between blood cells and plasma proteins, thus affecting the viscosity. We performed viscosity/shear rate measurements using a mixture of Jurkat T lymphocyte and the plasma protein fibrinogen.
The machine used for viscosity is the same as for stiffness measurements. To 30 µL of 4 mg mL^−1 fibrinogen, an equal volume of Jurkat cells (8 × 10^7 mL^−1 in PBS, washed two times with PBS before used; Jurkat cells ocupated around 20% of the volume) was added. The mixture was pipetted up and down six times, kept on ice for 10 min, and then transferred to the rheometer plater (25 °C) for measurements. The plate temperature was raised to 37 °C. The measurement was performed by increasing shear rate ramp liner from 100 to 1000 s^−1. Hundred data points were collected during the measurements. For each condition, two independent experiments were performed (Fig. 1c and Supplementary Fig. 3).

[2] = test system: PBMC samples from healthy donors, mixed; experiment: PACS in a two-way mixed lymphocyte reaction; assay type: cell-based, human; details: for effect on PACS in two-way mixed lymphocyte reaction: PBMCs treated with immunosuppressive drug; for cell surface PPIase activity k, Exp. 1 / cell surface PPIase activity k, Exp. 2 / cell surface PPIase activity k, Exp. 3 / cell surface PPIase activity k, Exp. 4 / cell surface PPIase activity k, Mean: 24 hours
Description: PACS were measured with four PBMC samples from healthy donors or with all six different combinations. […] After 24 h, diminished activity was detected in all combinations (Fig. 6d). For two combinations, no trace of activity could be detected, resembling the results from some primary samples of leukemia cells.
Mixed lymphocyte reaction is a routine assay used to measure the safety of implantable materials and the effect of immunosuppressive treatments. The PACS assay could become an alternative test, within a relatively short period of time, avoiding the use of biochemical reagents such as antibodies.
The assay was performed in a cold room. If there was no additional description, the assays were performed in CO2-independent medium supplemented with 10% (v/v) h.i. FBS (medium-h.i. FBS) and 2mM L-glutamine. […] FBS to a final concentration of 120 µg mL^−1 (two times substrate stock). α-Chymotrypsin was prepared freshly. Fifteen micrograms of α-chymotrypsin was dissolved in 2 mL medium-h.i. FBS, and the pH was adjusted with 10 µL 1 M NaOH. Five millimole CsA, SLF, and CsA/SLF mixture were prepared in DMSO.
One or more flasks of cells (5 mL per flask, depending on the maximum culture density of each cell line) were harvested by centrifuging at 1000 rpm for 3 min. To remove PPIases from the supernatant originating from the culture, cells were washed one time with 2 mL CO2-independent medium and were resuspended in 1.6 mL of CO2-independent medium with substrate. The cells were centrifuged again, and then 800 µL of the supernatant was taken. The residual volume containing cells was suspended. Nineteen microliters of the cells or supernatant was pipetted to a non-binding 96-well microplate to measure PPIase activity. Four different conditions were performed. […] The plate was kept for 5 min without agitation. The activity measurements were triggered by adding 20 µL of α-chymotrypsin at time 0 min, followed by 1.5 min agitation, and the reaction was stopped after 2 min with 80 µL 20% acetic acid, followed by 15 rounds of up and down pipetting mixing. Four independent experiments were performed on the same day.

Pin1 = molecular target: T1, Pin1 (Homo sapiens, UniProt Q13526); experiment: Liquid chromatography-based protease-coupled PPIase activity assay, Pin1 (nagarse); assay type: biochemical
T1 construct: host or cells: Escherichia coli BL21 (DE3)
Excerpt: A small gap was opened on

fibrin hydrogel = experiment: Stiffness (storage modulus) of fibrin gel by rheometer
Description: To minimize sample evaporation at 37 °C, a tissue paper wet in HEPEs buffer (10 mM, pH 7.8) was placed inside the H-PTD chamber to increase the humidity. […] The cone and plate were treated with plasma for 5 min to increase the hydrophilicity of the metal surface.
Fibrin gel: Fibrinogen (Shanghai Laishi Xuezhipin Limited Company) was dissolved in PBS with a concentration of 22.2 mg mL^−1 overnight at room temperature with gentle shaking and aliquoted in protein low-binding tubes (45 µL per tube). […] Fifty microliters of thrombin (4 EU mL^−1 in PBS with 1.8 mM CaCl2) was added and pipetted up and down ten times. Then, it was transferred to the rheometer plate for measurement. […] For each condition, two independent experiments were performed (Fig. 1a and Supplementary Fig. 1).

T1 sequence (Q13526 with tags, fused parts or gaps): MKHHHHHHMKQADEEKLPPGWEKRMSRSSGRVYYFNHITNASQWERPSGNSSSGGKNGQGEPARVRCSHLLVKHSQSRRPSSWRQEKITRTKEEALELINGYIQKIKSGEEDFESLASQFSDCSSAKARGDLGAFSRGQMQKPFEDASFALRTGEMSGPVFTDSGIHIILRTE

Row | Compound | effect on PACS in two-way mixed lymphocyte reaction [2] | cell surface PPIase activity k, Exp. 1 ([2]; healthy donors ab mixed) [s⁻¹] | cell surface PPIase activity k, Exp. 2 ([2]; healthy donors ab mixed) [s⁻¹] | cell surface PPIase activity k, Exp. 3 ([2]; healthy donors ab mixed) [s⁻¹] | cell surface PPIase activity k, Exp. 4 ([2]; healthy donors ab mixed) [s⁻¹] | cell surface PPIase activity k, Mean ([2]; healthy donors ab mixed) [s⁻¹] | cell surface PPIase activity k, Exp. 2 ([2]; healthy donors ac mixed) [s⁻¹] | cell surface PPIase activity k, Exp. 3 ([2]; healthy donors ac mixed) [s⁻¹] | cell surface PPIase activity k, Exp. 4 ([2]; healthy donors ac mixed) [s⁻¹] | cell surface PPIase activity k, Mean ([2]; healthy donors ac mixed) [s⁻¹] | cell surface PPIase activity k, Exp. 1 ([2]; healthy donors ad mixed) [s⁻¹] | cell surface PPIase activity k, Exp. 3 ([2]; healthy donors ad mixed) [s⁻¹] | cell surface PPIase activity k, Exp. 4 ([2]; healthy donors ad mixed) [s⁻¹] | cell surface PPIase activity k, Mean ([2]; healthy donors ad mixed) [s⁻¹] | cell surface PPIase activity k, Exp. 1 ([2]; healthy donors bc mixed) [s⁻¹] | cell surface PPIase activity k, Exp. 3 ([2]; healthy donors bc mixed) [s⁻¹] | cell surface PPIase activity k, Exp. 4 ([2]; healthy donors bc mixed) [s⁻¹] | cell surface PPIase activity k, Mean ([2]; healthy donors bc mixed) [s⁻¹] | cell surface PPIase activity k, Exp. 1 ([2]; healthy donors bd mixed) [s⁻¹] | cell surface PPIase activity k, Exp. 2 ([2]; healthy donors bd mixed) [s⁻¹] | other results
1 | C=CC[C@@H]1/C=C(\C)C[C@H](C)C[C@H](OC)[C@H]2O[C@@](O)(C(=O)C(=O)N3CCCC[C@H]3C(=O)O[C@H](/C(C)=C/[C@@H]3CC[C@@H](O)[C@H](OC)C3)[C@H](C)[C@@H](O)CC1=O)[C@H](C)C[C@@H]2OC [FK506] | recover PACS | 0.00026 | 0.00025 | 0.00019 | 0.00029 | 0.0002475 | 0.00014 | 0.00019 | 0.00016 | 0.0001625 | 0.00016 | 0.00017 | 0.00015 | 0.00016 | 0.00038 | 0.00031 | 0.00036 | 0.000335 | 0.00021 | 0.00026 | effect on viscosity of cell/fibrinogen mixture ([1]; Jurkat T lymphocyte and fibrinogen, shear rate 100-1000 s^-1): reduce the viscosity; effect on viscosity of cells in PBS or fibrinogen solution ([1]; Jurkat cells in PBS alone or fibrinogen solution alone): neither CsA nor FK506 has an effect; cell surface PPIase activity k, Exp. 1 ([2]; healthy donors ac mixed): 0.00016 s⁻¹; cell surface PPIase activity k, Exp. 2 ([2]; healthy donors bc mixed): 0.00029 s⁻¹; cell surface PPIase activity k, Exp. 4 ([2]; healthy donors bd mixed): 0.00031 s⁻¹; cell surface PPIase activity k, Mean ([2]; healthy donors bd mixed): 0.00026 s⁻¹; cell surface PPIase activity k, Exp. 1 ([2]; healthy donors cd mixed): 0.00017 s⁻¹; cell surface PPIase activity k, Exp. 2 ([2]; healthy donors cd mixed): 0.00019 s⁻¹; cell surface PPIase activity k, Exp. 4 ([2]; healthy donors cd mixed): 0.00018 s⁻¹; cell surface PPIase activity k, Mean ([2]; healthy donors cd mixed): 0.00018 s⁻¹
2 | O=P(O)(O)O [PO4-, inorganic phosphate, reference compound] | – | – | – | – | – | – | – | – | – | – | – | – | – | – | – | – | – | – | – | – | Pin catalyzing cis to trans isomerization rate k, Exp. 1 (Pin1; 25 nM Pin1 + 50 mM PO4-): 0.0025 s⁻¹; Pin catalyzing cis to trans isomerization rate k, Exp. 3 (Pin1; 25 nM Pin1 + 50 mM PO4-): 0.00169 s⁻¹; Pin catalyzing cis to trans isomerization rate k, Mean (Pin1; 25 nM Pin1 + 50 mM PO4-): 0.00212 s⁻¹; effect on Pin1 activity (Pin1; 50 mM): inhibited
3 | CO[C@H]1C[C@@H]2CC[C@@H](C)[C@@](O)(O2)C(=O)C(=O)N2CCCC[C@H]2C(=O)O[C@H]([C@H](C)C[C@@H]2CC[C@@H](O)[C@H](OC)C2)CC(=O)[C@H](C)/C=C(\C)[C@@H](O)[C@@H](OC)C(=O)[C@H](C)C[C@H](C)/C=C/C=C/C=C/1C [rapamycin] | recover PACS | 0.00035 | 0.00038 | 0.00034 | 0.0003 | 0.0003425 | 0.00041 | 0.00046 | 0.00043 | 0.0004333 | 0.00034 | 0.00027 | 0.00037 | 0.000315 | 0.00037 | 0.00037 | 0.00034 | 0.00036 | 0.00043 | 0.0005 | cell surface PPIase activity k, Exp. 2 ([2]; healthy donors ad mixed): 0.00028 s⁻¹; cell surface PPIase activity k, Exp. 3 ([2]; healthy donors bd mixed): 0.00053 s⁻¹; cell surface PPIase activity k, Exp. 4 ([2]; healthy donors bd mixed): 0.00054 s⁻¹; cell surface PPIase activity k, Mean ([2]; healthy donors bd mixed): 0.0005 s⁻¹; cell surface PPIase activity k, Exp. 1 ([2]; healthy donors cd mixed): 0.00036 s⁻¹; cell surface PPIase activity k, Exp. 2 ([2]; healthy donors cd mixed): 0.00026 s⁻¹; cell surface PPIase activity k, Exp. 3 ([2]; healthy donors cd mixed): 0.00026 s⁻¹; cell surface PPIase activity k, Exp. 4 ([2]; healthy donors cd mixed): 0.0002 s⁻¹; cell surface PPIase activity k, Mean ([2]; healthy donors cd mixed): 0.00027 s⁻¹
4 | CypA R55A: inactive mutant CypA R55A (a gift from Gunter Fischer) | – | – | – | – | – | – | – | – | – | – | – | – | – | – | – | – | – | – | – | – | effect on fibrin gelation as compared to the wild-type CypA (fibrin hydrogel): remarkably reduced
5 | Pin1: recombinant His-Pin1, parvulin family PPIase | – | – | – | – | – | – | – | – | – | – | – | – | – | – | – | – | – | – | – | – | Pin catalyzing cis to trans isomerization rate k, Exp. 1 (Pin1; 6.25 nM Pin1): 0.00224 s⁻¹; Pin catalyzing cis to trans isomerization rate k, Exp. 2 (Pin1; 6.25 nM Pin1): 0.00228 s⁻¹; Pin catalyzing cis to trans isomerization rate k, Exp. 3 (Pin1; 6.25 nM Pin1): 0.00191 s⁻¹; Pin catalyzing cis to trans isomerization rate k, Mean (Pin1; 6.25 nM Pin1): 0.00214 s⁻¹; Pin catalyzing cis to trans isomerization rate k, Exp. 1 (Pin1; 12.5 nM Pin1): 0.00419 s⁻¹; Pin catalyzing cis to trans isomerization rate k, Exp. 2 (Pin1; 12.5 nM Pin1): 0.00424 s⁻¹; Pin catalyzing cis to trans isomerization rate k, Exp. 3 (Pin1; 12.5 nM Pin1): 0.00418 s⁻¹; Pin catalyzing cis to trans isomerization rate k, Mean (Pin1; 12.5 nM Pin1): 0.0042 s⁻¹; Pin catalyzing cis to trans isomerization rate k, Exp. 1 (Pin1; 25 nM Pin1): 0.00841 s⁻¹; Pin catalyzing cis to trans isomerization rate k, Exp. 2 (Pin1; 25 nM Pin1): 0.00868 s⁻¹; Pin catalyzing cis to trans isomerization rate k, Exp. 3 (Pin1; 25 nM Pin1): 0.00853 s⁻¹; Pin catalyzing cis to trans isomerization rate k, Mean (Pin1; 25 nM Pin1): 0.00854 s⁻¹
